Assay results taken from publication PMC3816002 (Biochimica et biophysica acta, 2013).

Target: T1, CIITA (Homo sapiens, UniProt P33076, G420A/G425A/K426E)
T1 sequence (P33076 1-1130 G420A/G425A/K426E): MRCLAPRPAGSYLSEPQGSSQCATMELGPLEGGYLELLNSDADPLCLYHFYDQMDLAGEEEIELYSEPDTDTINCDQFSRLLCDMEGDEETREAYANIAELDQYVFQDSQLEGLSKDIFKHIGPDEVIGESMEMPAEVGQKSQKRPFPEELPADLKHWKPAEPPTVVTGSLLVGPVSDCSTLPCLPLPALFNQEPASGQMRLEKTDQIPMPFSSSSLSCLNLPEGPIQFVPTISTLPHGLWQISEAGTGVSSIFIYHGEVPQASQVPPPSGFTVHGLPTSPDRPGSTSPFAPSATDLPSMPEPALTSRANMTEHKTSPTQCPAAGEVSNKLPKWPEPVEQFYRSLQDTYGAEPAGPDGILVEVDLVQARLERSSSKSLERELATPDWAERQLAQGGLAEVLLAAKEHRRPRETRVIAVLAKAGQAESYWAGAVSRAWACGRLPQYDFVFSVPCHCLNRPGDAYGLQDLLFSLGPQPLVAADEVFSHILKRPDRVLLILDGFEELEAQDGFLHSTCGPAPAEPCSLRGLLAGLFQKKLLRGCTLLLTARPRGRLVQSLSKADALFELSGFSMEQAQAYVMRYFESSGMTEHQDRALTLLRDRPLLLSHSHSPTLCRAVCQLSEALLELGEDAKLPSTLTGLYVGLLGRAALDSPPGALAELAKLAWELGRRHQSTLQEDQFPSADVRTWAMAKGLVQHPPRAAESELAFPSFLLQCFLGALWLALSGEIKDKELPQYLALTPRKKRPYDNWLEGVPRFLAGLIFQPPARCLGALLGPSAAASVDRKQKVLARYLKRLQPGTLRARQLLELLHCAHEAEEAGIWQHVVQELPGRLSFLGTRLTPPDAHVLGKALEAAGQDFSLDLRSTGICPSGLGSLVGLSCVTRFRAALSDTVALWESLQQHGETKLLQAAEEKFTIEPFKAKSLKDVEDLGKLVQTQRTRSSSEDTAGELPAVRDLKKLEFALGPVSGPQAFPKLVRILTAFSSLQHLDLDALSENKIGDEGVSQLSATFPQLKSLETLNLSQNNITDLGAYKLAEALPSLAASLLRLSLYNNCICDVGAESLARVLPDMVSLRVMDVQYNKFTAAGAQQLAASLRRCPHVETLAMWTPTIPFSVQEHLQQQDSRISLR
Test: […] autophosphorylation kinase assay, SDS-PAGE, phosphorimager
Assay type: biochemical
Conditions: labelled compound; 5 mM MnCl2, 5 mM MgCl2, pH 7.5, 30 °C

## Nc1ncnc2c1ncn2[C@@H]1O[C@H](COP(=O)(O)OP(=O)(O)OP(=O)(O)O)[C@@H](O)[C@H]1O [ATP]
  32P autophosphorylation kinase assay, SDS-PAGE, phosphorimager: No loss of kinase activity was detected in the putative ATP binding site mutant
